Measurements published in patent US6737383B1, “Herbicidal oxadiazolidines” (priority 1999, dated 2004).

Experiments:
[1] = test system: wheat; assay: Test B pre/postemergence wheat; assay type: in vivo, Triticum aestivum
In short: (§1)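 Herbicidal effect was estimated by eye on a ten-point control scale after plants spent twelve to sixteen days in a greenhouse following soil or foliar treatment. Foliar sprays targeted plants at one to four leaves; all doses were formulated in a non-phytotoxic solvent with surfactant.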

[2] = test system: pigweed; assay: Test B pre/postemergence pigweed; assay type: in vivo, Amaranthus retroflexus
In short: as §1

[3] = test system: wild oat; assay: Test B pre/postemergence wild oat; assay type: in vivo, Avena fatua
In short: as §1

[4] = test system: blackgrass; assay: Test B pre/postemergence blackgrass; assay type: in vivo, Alopecurus myosuroides
In short: as §1

[5] = test system: cocklebur; assay: Test B pre/postemergence cocklebur; assay type: in vivo, Xanthium strumarium
In short: as §1

[6] = test system: crabgrass; assay: Test B pre/postemergence crabgrass; assay type: in vivo, Digitaria sanguinalis
In short: as §1

[7] = test system: bedstraw; assay: Test B pre/postemergence bedstraw; assay type: in vivo, Galium aparine
In short: as §1

[8] = test system: smallflower flatsedge; assay: Test B flood test smallflower flatsedge; assay type: in vivo, Cyperus difformis
In short: (§2)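 Flood test on plants grown to the 2-leaf stage; treated plants kept in greenhouse twelve to sixteen days, then visually rated against controls on a 0 (no effect) to 10 (complete control) scale.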

[9] = test system: soybean; assay: Test B pre/postemergence soybean; assay type: in vivo, Glycine max
In short: as §1

[10] = test system: bamyardgrass; assay: Test B flood test barnyardgrass; assay type: in vivo, Echinochloa crus-galli
In short: as §2

[11] = test system: corn; assay: Test B pre/postemergence corn; assay type: in vivo, Zea mays
In short: as §1

[12] = test system: surinam grass; assay: Test B pre/postemergence surinam grass; assay type: in vivo, Brachiaria decumbens
In short: as §1

[13] = test system: velvetleaf; assay: Test B pre/postemergence velvetleaf; assay type: in vivo, Abutilon theophrasti
In short: as §1

[14] = test system: morningglory; assay: Test B pre/postemergence morningglory; assay type: in vivo, Ipomoea hederacea
In short: as §1

[15] = test system: rice; assay: Test B flood test rice; assay type: in vivo, Oryza sativa
In short: as §2

[16] = test system: giant foxtail; assay: Test B pre/postemergence giant foxtail; assay type: in vivo, Setaria faberii
In short: as §1

[17] = Postemergence, Rate 62 g/ha, scale 0 to 10, 0 is no effect, 10 is complete control
[18] = Postemergence, Rate 250 g/ha, scale 0 to 10, 0 no effect, 10 complete control
[19] = Preemergence, Rate 62 g/ha, scale 0 to 10, 0 is no effect, 10 is complete control
[20] = Preemergence, Rate 125 g/ha, scale 0 to 10 (0 no effect, 10 complete control)
[21] = Preemergence, Rate 250 g/ha, scale of 0 to 10 where 0 is no effect and 10 is complete control
[22] = Preemergence, Rate 500 g/ha, scale 0 (no effect) to 10 (complete control)
[23] = Rate 125 g/ha, Postemergence, scale 0 to 10, 0 no effect, 10 complete control
[24] = Rate 500 g/ha, Postemergence, scale 0 to 10, 0 no effect, 10 complete control
[25] = Rate 125 g/ha, Pre-emergence, flood test species, scale 0 to 10 where 0 is no effect and 10 is complete control
[26] = Rate 250 g/ha, headed Pre-emergence (flood test species), scale 0 to 10 (0 no effect, 10 complete control)
[27] = Rate 500 g/ha, headed Pre-emergence (flood test species), scale 0 to 10 (0 no effect, 10 complete control)
[28] = Rate 2000 g/ha, Pre-emergence (as headed), scale 0 to 10
[29] = Rate 1000 g/ha, Pre-emergence (as headed), scale 0 to 10

Cc1cccc(C)c1-n1c(=O)on(C(=O)N(c2ccc(Cl)cc2)C(C)C)c1=O [Compound 47]
Wheat plant response rating [1, 17]: 0 | Wheat plant response rating [1, 18]: 2 | Plant response rating, Wheat [1, 19]: 0 | Plant response rating, Wheat [1, 20]: 0 | Plant response rating, Wheat [1, 21]: 0 | Wheat plant response rating [1, 22]: 0 | Wheat plant response rating [1, 23]: 0 | Wheat plant response rating [1, 24]: 3 | Redroot pigweed plant response rating [2, 17]: 0 | Redroot pigweed plant response rating [2, 18]: 0 | Plant response rating, Redroot pigweed [2, 19]: 0 | Plant response rating, Redroot pigweed [2, 20]: 0 | Plant response rating, Redroot pigweed [2, 21]: 0 | Redroot pigweed plant response rating [2, 22]: 0 | Redroot pigweed plant response rating [2, 23]: 0 | Redroot pigweed plant response rating [2, 24]: 2 | Wild oats plant response rating [3, 17]: 0 | Wild oats plant response rating [3, 18]: 0 | Plant response rating, Wild oats [3, 20]: 0 | Plant response rating, Wild oats [3, 21]: 0 | Wild oats plant response rating [3, 22]: 0 | Wild oats plant response rating [3, 23]: 0 | Wild oats plant response rating [3, 24]: 3 | Blackgrass plant response rating [4, 17]: 0 | Blackgrass plant response rating [4, 18]: 0 | Plant response rating, Blackgrass [4, 19]: 0 | Plant response rating, Blackgrass [4, 20]: 0 | Plant response rating, Blackgrass [4, 21]: 0 | Blackgrass plant response rating [4, 22]: 0 | Blackgrass plant response rating [4, 23]: 0 | Blackgrass plant response rating [4, 24]: 0 | Cocklebur plant response rating [5, 17]: 0 | Cocklebur plant response rating [5, 18]: 2 | Plant response rating, Cocklebur [5, 19]: 0 | Plant response rating, Cocklebur [5, 20]: 0 | Plant response rating, Cocklebur [5, 21]: 0 | Cocklebur plant response rating [5, 22]: 0 | Cocklebur plant response rating [5, 23]: 0 | Cocklebur plant response rating [5, 24]: 2 | Crabgrass plant response rating [6, 17]: 0 | Crabgrass plant response rating [6, 18]: 0 | Plant response rating, Crabgrass [6, 19]: 0 | Plant response rating, Crabgrass [6, 20]: 2 | Plant response rating, Crabgrass [6, 21]: 2 | Crabgrass plant response rating [6, 22]: 5 | Crabgrass plant response rating [6, 23]: 0 | Crabgrass plant response rating [6, 24]: 2 | Bedstraw plant response rating [7, 17]: 0 | Bedstraw plant response rating [7, 18]: 6 | Plant response rating, Bedstraw [7, 20]: 0 | Plant response rating, Bedstraw [7, 21]: 0 | Bedstraw plant response rating [7, 22]: 0 | Bedstraw plant response rating [7, 23]: 3 | S. Flatsedge plant response rating ([8]; Pre-emergence, Rate 1000 g/ha, scale 0 to 10 (0 no effect, 10 complete control)): 2 | S. Flatsedge plant response rating [8, 25]: 0 | S. Flatsedge plant response rating [8, 26]: 2 | Plant response rating, S. Flatsedge [8, 27]: 2 | S. Flatsedge plant response rating [8, 28]: 0 | Soybean plant response rating [9, 17]: 2 | Soybean plant response rating [9, 18]: 2 | Plant response rating, Soybean [9, 19]: 0 | Plant response rating, Soybean [9, 20]: 0 | Plant response rating, Soybean [9, 21]: 0 | Soybean plant response rating [9, 22]: 0 | Soybean plant response rating [9, 23]: 2 | Soybean plant response rating [9, 24]: 2 | Barnyardgrass plant response rating [10, 25]: 0 | Barnyardgrass plant response rating [10, 26]: 0 | Plant response rating, Barnyardgrass [10, 27]: 1 | Barnyardgrass plant response rating [10, 29]: 6 | Barnyardgrass plant response rating ([10]; Rate 2000 g/ha, Pre-emergence (as headed), scale 0 to 10, 0 no effect, 10 complete control): 8 | Corn plant response rating [11, 17]: 0 | Corn plant response rating [11, 18]: 0 | Plant response rating, Corn [11, 19]: 0 | Plant response rating, Corn [11, 20]: 0 | Plant response rating, Corn [11, 21]: 0 | Corn plant response rating [11, 22]: 0 | Corn plant response rating [11, 23]: 0 | Corn plant response rating [11, 24]: 0 | B. signalgrass plant response rating [12, 17]: 0 | B. signalgrass plant response rating [12, 18]: 0 | Plant response rating, B. signalgrass [12, 19]: 0 | Plant response rating, B. signalgrass [12, 20]: 0 | Plant response rating, B. signalgrass [12, 21]: 0 | B. signalgrass plant response rating [12, 22]: 0 | B. signalgrass plant response rating [12, 23]: 0 | B. signalgrass plant response rating ([12]; Rate 500 g/ha, Postemergence, scale of 0 to 10 where 0 is no effect and 10 is complete control): 0 | Velvetleaf plant response rating [13, 17]: 0 | Velvetleaf plant response rating [13, 18]: 0 | Plant response rating, Velvetleaf [13, 19]: 0 | Plant response rating, Velvetleaf [13, 20]: 0 | Plant response rating, Velvetleaf [13, 21]: 0 | Velvetleaf plant response rating [13, 22]: 0 | Velvetleaf plant response rating [13, 23]: 0 | Velvetleaf plant response rating [13, 24]: 0 | Morningglory plant response rating [14, 17]: 1 | Morningglory plant response rating [14, 18]: 4 | Plant response rating, Morningglory [14, 19]: 0 | Plant response rating, Morningglory [14, 20]: 0 | Plant response rating, Morningglory [14, 21]: 0 | Morningglory plant response rating [14, 22]: 0 | Morningglory plant response rating [14, 23]: 2 | Morningglory plant response rating [14, 24]: 6 | Rice plant response rating [15, 25]: 0 | Rice plant response rating [15, 26]: 0 | Plant response rating, Rice [15, 27]: 0 | Rice plant response rating [15, 29]: 0 | Rice plant response rating [15, 28]: 0 | Giant foxtail plant response rating [16, 17]: 0 | Giant foxtail plant response rating [16, 18]: 0 | Plant response rating, Giant foxtail [16, 19]: 0 | Plant response rating, Giant foxtail [16, 20]: 2 | Plant response rating, Giant foxtail [16, 21]: 3 | Giant foxtail plant response rating [16, 22]: 3 | Giant foxtail plant response rating [16, 23]: 0 | Giant foxtail plant response rating [16, 24]: 2
